# Assay results from patent US20260294863A1, “METHOD OF TREATING FIBROTIC-RELATED CONDITION” (YISSUM RESEARCH DEVELOPMENT COMPANY OF THE HEBREW …, priority 2023, published 2026).
# What was measured:
# [1] = system: BzATP/LPS-activated microglia; assay: Gene expression (RNA-seq) in BzATP/LPS-activated microglia; type: cell-based, Balb/C mice; conditions: 1×10^−10 M, 8 hrs after BzATP/LPS
# Protocol: (§1) Experiments were performed on primary microglial cells isolated from brains of neonatal Balb/C mice as previously described (Reichert and Rotshenker, 2003). The brains were stripped of their meninges and enzymatically dissociated. Cells were plated on Poly-L-lysine coated flasks for one week, re-plated for 1- to 2-hr on bacteriological plates and non-adherent cells were washed away. Microglia were propagated by incubation in 20% of medium, conditioned by the L-cell line that produces mouse-CSF. They were identified by morphology and positive immune-reactivity to P2y12, F4/80, complement receptor-3 and Galectin-3/MAC-2 (Reichert and Rotshenker 2003; Gitik et al. 2011).
# Ladostigil (1×10^−10 M) was added to microglia for 2 hrs before BzATP/LPS. Cells were harvested before and 8 hr after addition of BzATP/LPS. Total RNA was extracted using the RNeasy Plus Universal Mini Kit (QIAGEN) according to the manufacturer's protocol. Total RNA samples (1 μg RNA) were enriched for mRNAs by pull-down of poly A. Libraries were prepared using the KAPA Stranded mRNA-Seq Kit according to the manufacturer's protocol and sequenced using Illumina NextSeq 500 to generate 85 bp single-end reads (total 25-30 million reads per sample) as described in Zohar et al. (2021).
# Next-generation sequencing data underwent quality control using FastQC. They were then preprocessed using Trimmomatic (Bolger et al. 2014) and aligned to the reference genome GRCm38 with the STAR aligner (Dobin et al. 2013) using default parameters. Genomic loci were annotated using GENCODE version M25 (Frankish et al. 2019). Genes with low expression were filtered out of the dataset by setting a threshold of a minimum of 2 counts-per-million in three samples.
# Pair-wise differential analyses were performed between all […] BzATP/LPS time points and genes with an FDR <0.01 were considered.
# [2] = system: EGR1; assay: Nuclear levels of EGR1 in microglia activated by BzATP and LPS; type: cell-based, Balb/C mice
# Protocol: as §1
# The addition of BzATP/LPS to microglia increased cytoplasmic levels of TNFαIP3 protein and nuclear ERGR1 protein.
# [3] = Mortality in bleomycin-induced lung fibrosis; type: in vivo, C57BL/6JOlaHsd mice
# Protocol: The animal model of bleomycin-induced lung fibrosis is widely used to characterize the potential inhibitory effect of newly developed drugs (Distler et al. 2019). Experiments were performed in C57BL/6JOlaHsd male and female mice aged 12-13 weeks. Male mice weighed 23-27.3 g and female mice, 19.4-21.1 g. They were housed under pathogen-free conditions, up to 6 per cage, in IVC cages under a controlled temperature of 22-24° C., humidity and alternating 12-h light/dark cycles and provided with food and water ad libitum. […] Saline (2-3/sex) and bleomycin controls were anesthetized as described above. Bleomycin solution (0.25 mg/kg in 50 μl) was instilled into the lumen of the trachea as shown in a video by Ehrentraut et al. (2019). […] Mice were weighed daily and sacrificed on day 21. Bronchial fluid was collected as described in Ehrentraut et al. (2019). TNFα and IL-6 in the bronchial fluid lavage was measured by ELISA as described in the preceding section.
# [4] = system: bleomycin-induced lung fibrosis; assay: Lung fibrosis score / collagen content in bleomycin-induced lung fibrosis; type: in vivo, C57BL/6JOlaHsd mice
# Protocol: The animal model of bleomycin-induced lung fibrosis is widely used to characterize the potential inhibitory effect of newly developed drugs (Distler et al. 2019). Experiments were performed in C57BL/6JOlaHsd male and female mice aged 12-13 weeks. Male mice weighed 23-27.3 g and female mice, 19.4-21.1 g. They were housed under pathogen-free conditions, up to 6 per cage, in IVC cages under a controlled temperature of 22-24° C., humidity and alternating 12-h light/dark cycles and provided with food and water ad libitum. In order to minimize the stress of daily injection, ladostigil (5 mg/Kg/day) was administered by micro-osmotic pumps, implanted subcutaneously under ketamine/xylazine anesthesia, 5 days before administration of bleomycin, and delivered for 3 weeks to mice of each sex. Saline (2-3/sex) and bleomycin controls were anesthetized as described above. Bleomycin solution (0.25 mg/kg in 50 μl) was instilled into the lumen of the trachea as shown in a video by Ehrentraut et al. (2019). […] Mice were weighed daily and sacrificed on day 21. Bronchial fluid was collected as described in Ehrentraut et al. (2019). TNFα and IL-6 in the bronchial fluid lavage was measured by ELISA as described in the preceding section.
# Specimens taken from the left lung were embedded in paraffin and cut into 5 μm-thick slices. They were put on slides and paraffin was removed. They were rehydrated and stained with a solution of Sirius red (100 mg/100 ml of [COMPOUND LEFT OUT], rinsed in distilled water until clear, dehydrated and mounted in a resinous medium. The red stain (also called “Sirius red” stain) is one of the best understood histochemical techniques. It relies on the birefringent properties of collagen and is much more specific than the other common collagen stains, Pulmonary fibrosis was evaluated on a score of 0-4 on 15-20 different fields taken from each lung section, according to the area and intensity of fibrotic staining in the field, excluding that in blood vessels. Two independent scientists blinded to the treatment performed the analysis. For TGFβ1 staining, slides were deparaffinized and rehydrated. Antigen retrieval was performed in Tris-based buffer, pH 9.0. Endogenous peroxidase activity was quenched by incubation in 3% H2O2. The tissue was permeabilized with Triton X-100 0.1% in PBS. After blocking, sections were incubated with primary antibody: diluted rabbit recombinant monoclonal TGFβ1 antibody (Abcam ab215715) over night, at 4° C. Slices were further incubated with the secondary antibody: ImmPRESS®-HRP Goat Anti-Rabbit IgG Polymer Detection Kit, Peroxidase (Vector labs VE-MP-7451-15) at room temperature. For color development, sections were incubated in peroxidase substrate solution DAB, at room temperature until desired stain intensity developed. They were then counterstained with filtered hematoxylin and cosin, cleared and mounted.
# Experiments were performed in C57BL/6JOlaHsd male mice aged 12-13 weeks as described for ladostigil. AN1284 (2.5 mg/kg/day) was administered by micro-osmotic pumps, implanted subcutaneously under ketamine/xylazine anesthesia, 5 days before administration of bleomycin and delivered for 3 weeks. Mice were weighed daily, sacrificed on day 21 and bronchial fluid was collected. Fibrosis was measured by staining with Sirius red as described for ladostigil. TNFα and IL-6 in the bronchial fluid lavage was measured by ELISA as described for ladostigil.
compound,measurement,setting,value
"C#CCN[C@@H]1CCc2ccc(OC(=O)N(C)CC)cc21 [Ladostigil, 6-(N-ethyl, N-methylcarbamyloxy)-N propargyl-1 (R)-aminoindan hemitartrate]",Egr1 gene expression,[1],downregulated
same,Egr2 gene expression,[1],downregulated
same,Mmp12 gene expression,[1],downregulated
same,TNFαIP3 (A20) gene expression,[1],up-regulated
same,Timp1 gene expression,[1],downregulated
same,number of genes significantly altered in expression,[1],25 genes
same,Mean percent of nuclei with positive EGR1 protein immunoreactivity ± SEM,"[2]; BzATP/LPS, ladostigil 1×10^−10 M, Medium 19.0 ± 4.2",56.0 ± 3.9%
same,change in nuclear EGR1 protein,"[2]; microglia, ladostigil 1×10^−10 M on top of BzATP/LPS",decreased
same,mortality,"[3]; females, ladostigil+bleomycin, 2.5 mg/kg (2/10)",20%
same,mortality,"[3]; females, ladostigil+bleomycin, 5 mg/kg (1/20)",5%
same,mortality (animals died/total),"[3]; females, ladostigil+bleomycin, dose not given",1/11
same,mortality,"[3]; males, bleomycin+ladostigil 5 mg/kg, day 17 (2/9)",22%
same,mortality,"[3]; males, ladostigil 10 mg/kg, day 17 (1/11)",9%
same,fibrosis (overall conclusion),[4]; bleomycin-induced lung fibrosis murine model,shown to reduce fibrosis
same,collagen deposition (hydroxyproline),"[4]; both sexes, 5 mg/Kg/day",reduced collagen deposition
same,fibrosis (score),"[4]; females, 2.5 and 5 mg/Kg/day",significantly reduced fibrosis
same,fibrosis (score),"[4]; males, 5 and 10 mg/kg/day",significantly reduced fibrosis
same,anti-inflammatory effect in bleomycin-induced lung fibrosis model,"[4]; mouse, in vivo",does not have an anti-inflammatory effect
